Source: BindingDB's records for doi:10.1016/j.bmcl.2007.06.085 (Merck, 2007)

Molecular target: Substance-P receptor (Homo sapiens, UniProt P25103)
Assay: Displacement of [3H]SP from human NK1 receptor expressed in CHO cells

Sequence of Substance-P receptor (P25103 whole entry): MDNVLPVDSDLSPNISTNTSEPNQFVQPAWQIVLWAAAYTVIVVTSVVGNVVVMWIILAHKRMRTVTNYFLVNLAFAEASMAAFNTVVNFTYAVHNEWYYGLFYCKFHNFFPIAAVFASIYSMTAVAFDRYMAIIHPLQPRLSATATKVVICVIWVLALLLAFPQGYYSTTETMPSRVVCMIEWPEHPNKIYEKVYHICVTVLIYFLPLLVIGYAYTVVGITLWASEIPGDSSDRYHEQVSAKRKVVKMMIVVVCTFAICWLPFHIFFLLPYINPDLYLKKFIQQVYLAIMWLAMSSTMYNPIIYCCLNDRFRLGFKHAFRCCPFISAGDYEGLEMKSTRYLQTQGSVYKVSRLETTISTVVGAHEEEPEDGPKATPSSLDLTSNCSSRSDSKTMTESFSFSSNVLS

**Q.** With `C[C@@H](O[C@@H]1CN(C2CC(=O)C(=O)C2)C[C@H]1c1ccc(F)cc1)c1cc(C(F)(F)F)cc(C(F)(F)F)c1` [3-((3S,4R)-3-((R)-1-(3,5-bis(trifluoromethyl)phenyl)ethoxy)-4-(4-fluorophenyl)pyrrolidin-1-yl)-5-hydroxycyclopent-2-enone] as the compound, how does the IC50 read?
**A.** 300 pM
